Measured values reported in patent US20260262643A1, “HERBICIDAL BENZOXAZINES” (FMC CORPORATION, priority 2022, published 2026).

Assays:
[1] = test system: sedge, umbrella; test: Test D flooded paddy test; type: in vivo, Cyperus difformis; details: 250 g ai/ha, applied to paddy water, visual rating after 13 to 14 days, scale 0 to 100 (0 no effect, 100 complete control)
Procedure, shortened: (§1)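 Seedlings reached the 2-leaf stage, then pots were flooded to 3 cm over the soil surface. Compound was applied into the water, depth was maintained, and plants stayed in the greenhouse 13 to 14 days before visual scoring (0–100) relative to controls.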

[2] = test system: oat, wild; test: Test C preemergence; type: in vivo, Avena fatua; details: for Plant response rating, Oat, Wild: Preemergence; for Oat, Wild plant response rating: preemergence
Procedure, shortened: (§2)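 Seeds sown in loam soil–sand blend received a directed preemergence soil spray of test chemical in non-phytotoxic solvent with surfactant; postemergence plants (2–10 cm, one- to two-leaf stage) were sprayed with the same formulation. Greenhouse-held 10 days, then visually rated for injury versus untreated controls, 0 (no effect) to 100 (complete control).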

[3] = test system: ducksalad; test: Test D flooded paddy test; type: in vivo, Heteranthera limosa; details: 250 g ai/ha, applied to paddy water, visual rating after 13 to 14 days, scale 0 to 100 (0 no effect, 100 complete control)
Procedure, shortened: as §1

[4] = test system: barnyardgrass; test: Test D flooded paddy test; type: in vivo, Echinochloa crus-galli; details: 250 g ai/ha, applied to paddy water, visual rating after 13 to 14 days, scale 0 to 100 (0 no effect, 100 complete control)
Procedure, shortened: as §1

[5] = test system: corn; test: Test C preemergence; type: in vivo, Zea mays; details: for Plant response rating, Corn: Preemergence; for Corn plant response rating: preemergence
Procedure, shortened: as §2

[6] = test system: green foxtail; test: Test C preemergence; type: in vivo, Setaria viridis; details: for Plant response rating, Foxtail, Green: Preemergence; for Foxtail, Green plant response rating: preemergence
Procedure, shortened: as §2

[7] = test system: blackgrass; test: Test C preemergence; type: in vivo, Alopecurus myosuroides; details: for Plant response rating, Blackgrass: Preemergence; for Blackgrass plant response rating: preemergence
Procedure, shortened: as §2

[8] = test system: barnyardgrass; test: Test C postemergence; type: in vivo, Echinochloa crusgalli; details: 10 days
Procedure, shortened: as §2

[9] = test system: wheat; test: Test C postemergence; type: in vivo, Triticum aestivum; details: 10 days
Procedure, shortened: as §2

[10] = test system: wheat; test: Test C preemergence; type: in vivo, Triticum aestivum; details: for Plant response rating, Wheat: Preemergence; for Wheat plant response rating: preemergence
Procedure, shortened: as §2

[11] = test system: kochia; test: Test C preemergence; type: in vivo, Bassia scoparia; details: for Plant response rating, Kochia: Preemergence; for Kochia plant response rating: preemergence
Procedure, shortened: as §2

[12] = test system: horseweed; test: Test C postemergence; type: in vivo, Erigeron canadensis; details: 10 days
Procedure, shortened: as §2

[13] = test system: galium; test: Test C postemergence; type: in vivo, Galium aparine; details: 10 days
Procedure, shortened: as §2

[14] = test system: corn; test: Test C postemergence; type: in vivo, Zea mays; details: 10 days
Procedure, shortened: as §2

[15] = test system: barnyardgrass; test: Test C preemergence; type: in vivo, Echinochloa crusgalli; details: for Plant response rating, Barnyardgrass: Preemergence; for Barnyardgrass plant response rating: preemergence
Procedure, shortened: as §2

[16] = test system: oat, wild; test: Test C postemergence; type: in vivo, Avena fatua; details: 10 days
Procedure, shortened: as §2

[17] = test system: blackgrass; test: Test C postemergence; type: in vivo, Alopecurus myosuroides; details: 10 days
Procedure, shortened: as §2

[18] = test system: rice; test: Test D flooded paddy test; type: in vivo, Oryza sativa; details: 250 g ai/ha, applied to paddy water, visual rating after 13 to 14 days, scale 0 to 100 (0 no effect, 100 complete control)
Procedure, shortened: as §1

[19] = test system: soybean; test: Test C preemergence; type: in vivo, Glycine max; details: for Plant response rating, Soybean: Preemergence; for Soybean plant response rating: preemergence
Procedure, shortened: as §2

[20] = test system: ragweed; test: Test C postemergence; type: in vivo, Ambrosia artemisiifolia; details: 10 days
Procedure, shortened: as §2

[21] = test system: kochia; test: Test C postemergence; type: in vivo, Bassia scoparia; details: 10 days
Procedure, shortened: as §2

[22] = test system: ryegrass, Italian; test: Test C postemergence; type: in vivo, Lolium multiflorum; details: 10 days
Procedure, shortened: as §2

[23] = test system: pigweed, palmer; test: Test C postemergence; type: in vivo, Amaranthus palmeri; details: 10 days
Procedure, shortened: as §2

[24] = test system: ragweed; test: Test C preemergence; type: in vivo, Ambrosia artemisiifolia; details: for Plant response rating, Ragweed: Preemergence; for Ragweed plant response rating: preemergence
Procedure, shortened: as §2

[25] = test system: pigweed, palmer; test: Test C preemergence; type: in vivo, Amaranthus palmeri; details: for Plant response rating, Pigweed, Palmer: Preemergence; for Pigweed, Palmer plant response rating: preemergence
Procedure, shortened: as §2

[26] = test system: soybean; test: Test C postemergence; type: in vivo, Glycine max; details: 10 days
Procedure, shortened: as §2

[27] = test system: ryegrass, Italian; test: Test C preemergence; type: in vivo, Lolium multiflorum; details: for Plant response rating, Ryegrass, Italian: Preemergence; for Ryegrass, Italian plant response rating: preemergence
Procedure, shortened: as §2

[28] = test system: green foxtail; test: Test C postemergence; type: in vivo, Setaria viridis; details: 10 days
Procedure, shortened: as §2

[29] = 500 g ai/ha, visual rating after 10 days, 0 to 100 scale (0 no effect, 100 complete control)
[30] = Test C, 125 g ai/ha, 0 to 100 scale (0 no effect, 100 complete control)
[31] = 125 g ai/ha, postemergence, 0 to 100 scale, 0 no effect, 100 complete control
[32] = Postemergence, 500 g ai/ha, visual 0 to 100 scale (0 no effect, 100 complete control)
[33] = 500 g ai/ha, 0 to 100 scale (0 no effect, 100 complete control)
[34] = 125 g ai/ha, 0 to 100 scale, 0 no effect, 100 complete control
[35] = 500 g ai/ha, postemergence, 0 to 100 scale (0 no effect, 100 complete control)
[36] = Postemergence, 125 g ai/ha, 0 to 100 scale (0 no effect, 100 complete control)

Cc1ccc(-n2cnc(C(C)(F)F)n2)cc1C(=O)N1C[C@H](C)Oc2c(Cl)cccc21 [Compound 248]
50: Plant response rating, Corn [5, 29] | Plant response rating, Barnyardgrass [8, 31]
100: Plant response rating, Foxtail, Green [6, 29] | Foxtail, Green plant response rating [6, 30] | Plant response rating, Kochia [11, 29] | Kochia plant response rating [11, 30] | Plant response rating, Galium [13, 31] | Plant response rating, Barnyardgrass [15, 29] | Barnyardgrass plant response rating [15, 30] | Plant response rating, Blackgrass [17, 32] | Plant response rating, Soybean [19, 29] | Plant response rating, Kochia [21, 32] | Plant response rating, Ryegrass, Italian [22, 32] | Plant response rating, Pigweed, Palmer [23, 32] | Plant response rating, Pigweed, Palmer [25, 29] | Pigweed, Palmer plant response rating [25, 30] | Plant response rating, Soybean [26, 31] | Plant response rating, Soybean [26, 32] | Plant response rating, Ryegrass, Italian [27, 29]
60: Plant response rating, Corn [14, 31] | Plant response rating, Oat, Wild [16, 31] | Soybean plant response rating [19, 30]
90: Plant response rating, Oat, Wild [2, 29] | Plant response rating, Wheat [9, 32] | Plant response rating, Wheat [10, 29] | Plant response rating, Blackgrass [17, 31] | Plant response rating, Ragweed [20, 31] | Plant response rating, Ragweed [20, 32] | Plant response rating, Kochia [21, 31] | Plant response rating, Ryegrass, Italian [22, 31] | Plant response rating, Pigweed, Palmer [23, 31] | Plant response rating, Ragweed [24, 29] | Ryegrass, Italian plant response rating [27, 30] | Plant response rating, Foxtail, Green [28, 31] | Plant response rating, Foxtail, Green [28, 32]
30: Blackgrass plant response rating [7, 30] | Plant response rating, Wheat [9, 31]
70: Plant response rating, Blackgrass [7, 29] | Plant response rating, Barnyardgrass [8, 32] | Plant response rating, Corn [14, 32] | Plant response rating, Oat, Wild [16, 32]
20: Corn plant response rating [5, 30]
40: Oat, Wild plant response rating [2, 30] | Wheat plant response rating [10, 30] | Plant response rating, Horseweed [12, 32]
0: Plant response rating, Sedge, Umbrella (Flood) [1] | Plant response rating, Ducksalad (Flood) [3] | Plant response rating, Barnyardgrass (Flood) [4] | Plant response rating, Rice (Flood) [18]
80: Ragweed plant response rating [24, 30]
10: Plant response rating, Horseweed [12, 31]

COc1ccc(-n2cnc(C(C)C)n2)cc1C(=O)N1C[C@H](C)Oc2c(C)cccc21 [Compound 210]
20: Plant response rating, Barnyardgrass (Flood) [4]
0: Plant response rating, Soybean [26, 31]
90: Plant response rating, Oat, Wild [2, 29] | Plant response rating, Wheat [9, 32] | Plant response rating, Wheat [10, 29] | Wheat plant response rating [10, 30] | Kochia plant response rating [11, 30] | Plant response rating, Corn [14, 32] | Plant response rating, Blackgrass [17, 31] | Plant response rating, Blackgrass [17, 32] | Soybean plant response rating [19, 30] | Plant response rating, Kochia [21, 32] | Plant response rating, Ryegrass, Italian [22, 32] | Plant response rating, Pigweed, Palmer [23, 31] | Plant response rating, Foxtail, Green [28, 31] | Plant response rating, Foxtail, Green [28, 32]
15: Plant response rating, Rice (Flood) [18]
100: Plant response rating, Sedge, Umbrella (Flood) [1] | Plant response rating, Foxtail, Green [6, 29] | Foxtail, Green plant response rating [6, 30] | Plant response rating, Blackgrass [7, 29] | Plant response rating, Barnyardgrass [8, 32] | Plant response rating, Kochia [11, 29] | Plant response rating, Galium [13, 31] | Plant response rating, Galium [13, 32] | Plant response rating, Barnyardgrass [15, 29] | Barnyardgrass plant response rating [15, 30] | Plant response rating, Soybean [19, 29] | Plant response rating, Pigweed, Palmer [23, 32] | Plant response rating, Pigweed, Palmer [25, 29] | Pigweed, Palmer plant response rating [25, 30] | Plant response rating, Ryegrass, Italian [27, 29] | Ryegrass, Italian plant response rating [27, 30]
10: Plant response rating, Soybean [26, 32]
50: Plant response rating, Barnyardgrass [8, 31] | Plant response rating, Wheat [9, 31]
70: Plant response rating, Kochia [21, 31]
85: Plant response rating, Ducksalad (Flood) [3]
60: Oat, Wild plant response rating [2, 30] | Plant response rating, Corn [5, 29] | Plant response rating, Ragweed [20, 31] | Plant response rating, Ryegrass, Italian [22, 31]
80: Blackgrass plant response rating [7, 30] | Plant response rating, Horseweed [12, 31] | Plant response rating, Horseweed [12, 32] | Plant response rating, Corn [14, 31] | Plant response rating, Oat, Wild [16, 31] | Plant response rating, Oat, Wild [16, 32] | Plant response rating, Ragweed [20, 32] | Plant response rating, Ragweed [24, 29]
30: Corn plant response rating [5, 30] | Ragweed plant response rating [24, 30]

Cc1ccc(-n2cnc(CC#N)n2)cc1C(=O)N1C[C@H](C)Oc2c(Cl)cccc21 [Compound 364]
90: Blackgrass plant response rating [7, 33] | Kochia plant response rating [11, 33] | Plant response rating, Blackgrass [17, 36] | Plant response rating, Kochia [21, 35] | Plant response rating, Pigweed, Palmer [23, 35] | Ryegrass, Italian plant response rating [27, 33] | Plant response rating, Foxtail, Green [28, 35]
10: Plant response rating, Oat, Wild [2, 34] | Plant response rating, Barnyardgrass (Flood) [4] | Plant response rating, Corn [5, 34] | Plant response rating, Rice (Flood) [18]
0: Plant response rating, Wheat [10, 34] | Plant response rating, Horseweed [12, 35] | Plant response rating, Horseweed [12, 36]
80: Plant response rating, Ducksalad (Flood) [3] | Plant response rating, Barnyardgrass [8, 35] | Plant response rating, Wheat [9, 35] | Plant response rating, Ragweed [20, 35] | Ragweed plant response rating [24, 33] | Plant response rating, Foxtail, Green [28, 36]
95: Plant response rating, Sedge, Umbrella (Flood) [1]
70: Plant response rating, Kochia [11, 34] | Plant response rating, Oat, Wild [16, 35] | Plant response rating, Ragweed [20, 36] | Plant response rating, Kochia [21, 36] | Plant response rating, Ryegrass, Italian [22, 36] | Plant response rating, Pigweed, Palmer [23, 36]
60: Plant response rating, Blackgrass [7, 34] | Plant response rating, Oat, Wild [16, 36] | Plant response rating, Ryegrass, Italian [27, 34]
50: Plant response rating, Barnyardgrass [8, 36] | Plant response rating, Corn [14, 35] | Plant response rating, Barnyardgrass [15, 34]
30: Oat, Wild plant response rating [2, 33] | Corn plant response rating [5, 33] | Plant response rating, Wheat [9, 36] | Plant response rating, Corn [14, 36]
100: Foxtail, Green plant response rating [6, 33] | Plant response rating, Foxtail, Green [6, 34] | Plant response rating, Galium [13, 35] | Plant response rating, Galium [13, 36] | Barnyardgrass plant response rating [15, 33] | Plant response rating, Blackgrass [17, 35] | Soybean plant response rating [19, 33] | Plant response rating, Soybean [19, 34] | Plant response rating, Ryegrass, Italian [22, 35] | Pigweed, Palmer plant response rating [25, 33] | Plant response rating, Pigweed, Palmer [25, 34] | Plant response rating, Soybean [26, 35] | Plant response rating, Soybean [26, 36]
40: Wheat plant response rating [10, 33]
20: Plant response rating, Ragweed [24, 34]
